US8722578B2, “Spiroheterocyclic pyrrolidinedione herbicidal compositions” (Syngenta Participations AG, priority 2008, dated 2014)

Key:
[1] = system: Alopecurus myosuroides (ALOMY); assay: Example B pre-emergence herbicidal activity, glasshouse pot test; assay type: in vivo; details: 312 h, first table (headed Post-Emergence, taken as pre-emergence), rate 250 g/ha, evaluated after 13 days, read-out: ALOMY activity (100=total damage to plant; 0=no damage to plant)
In short: (§1)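 Damage is rated visually 13 days after spraying on a 0 (no damage) to 100 (total damage) scale. The aqueous spray is derived from an acetone/water (50:50) formulation with 0.5% Tween 20 and is applied one day after sowing for pre-emergence or after 8 days of cultivation for post-emergence.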

Avena fatua (AVEFA) [2] = assay: as above; assay type: in vivo; details: 312 h, first table (headed Post-Emergence, taken as pre-emergence), rate 250 g/ha, evaluated after 13 days, read-out: AVEFA activity (100=total damage to plant; 0=no damage to plant)
In short: as §1

Setaria faberi (SETFA) [3] = assay: as above; assay type: in vivo; details: 312 h, first table (headed Post-Emergence, taken as pre-emergence), rate 250 g/ha, evaluated after 13 days, read-out: SETFA activity (100=total damage to plant; 0=no damage to plant)
In short: as §1

[4] = system: Echinochloa crus-galli (ECHCG); assay: as above; assay type: in vivo; details: 312 h, first table (headed Post-Emergence, taken as pre-emergence), rate 250 g/ha, evaluated after 13 days, read-out: ECHCG activity (100=total damage to plant; 0=no damage to plant)
In short: as §1

[5] = system: Alopecurus myosuroides (ALOMY); assay: Example A post-emergence herbicidal activity, glasshouse pot test; assay type: in vivo; details: 360 h, rate 125 g/ha, evaluated 15 days after spraying, read-out: ALOMY post-emergence activity (100=total damage to plant; 0=no damage to plant)
Description: (§2) Monocotyledonous and dicotyledonous test plants are sown in standard soil in pots. After cultivation for one day (pre-emergence) or after 10 days cultivation (post-emergence) under controlled conditions in a glasshouse, the plants are sprayed with an aqueous spray solution derived from the formulation of the technical active ingredient in 0.6 ml acetone and 45 ml formulation solution containing 10.6% Emulsogen EL (Registry number 61791-12-6), 42.2% N-methylpyrrolidone, 42.2% dipropylene glycol monomethyl ether (Registry number 34590-94-8) and 0.2% X-77 (Registry number 11097-66-8). The test plants are then grown in a greenhouse under optimum conditions until, 15 days later for post-emergence and 20 days for pre-emergence, the test is evaluated (100=total damage to plant; 0=no damage to plant). Test Plants: Alopecurus myosuroides (ALOMY), Avena fatua (AVEFA), Lolium perenne (LOLPE), Setaria faberi (SETFA), Digitaria sanguinalis (DIGSA), Echinochloa crus-galli (ECHCG) Post-Emergence Activity

Avena fatua (AVEFA) [6] = assay: as above; assay type: in vivo; details: 360 h, rate 125 g/ha, evaluated 15 days after spraying, read-out: AVEFA post-emergence activity (100=total damage to plant; 0=no damage to plant)
Description: as §2

Lolium perenne (LOLPE) [7] = assay: as above; assay type: in vivo; details: 360 h, rate 125 g/ha, evaluated 15 days after spraying, read-out: LOLPE post-emergence activity (100=total damage to plant; 0=no damage to plant)
Description: as §2

Setaria faberi (SETFA) [8] = assay: as above; assay type: in vivo; details: 360 h, rate 125 g/ha, evaluated 15 days after spraying, read-out: SETFA post-emergence activity (100=total damage to plant; 0=no damage to plant)
Description: as §2

[9] = system: Digitaria sanguinalis (DIGSA); assay: as above; assay type: in vivo; details: 360 h, rate 125 g/ha, evaluated 15 days after spraying, read-out: DIGSA post-emergence activity (100=total damage to plant; 0=no damage to plant)
Description: as §2

[10] = system: Echinochloa crus-galli (ECHCG); assay: as above; assay type: in vivo; details: 360 h, rate 125 g/ha, evaluated 15 days after spraying, read-out: ECHOG post-emergence activity (100=total damage to plant; 0=no damage to plant)
Description: as §2

[11] = system: Alopecurus myosuroides (ALOMY); assay: Example A pre-emergence herbicidal activity, glasshouse pot test; assay type: in vivo; details: 480 h, rate 250 g/ha, evaluated 20 days after spraying, read-out: ALOMY pre-emergence activity (100=total damage to plant; 0=no damage to plant)
Description: as §2, with “Pre-Emergence” for “Post-Emergence”

Avena fatua (AVEFA) [12] = assay: as above; assay type: in vivo; details: 480 h, rate 250 g/ha, evaluated 20 days after spraying, read-out: AVEFA pre-emergence activity (100=total damage to plant; 0=no damage to plant)
Description: as §2, with “Pre-Emergence” for “Post-Emergence”

Lolium perenne (LOLPE) [13] = assay: as above; assay type: in vivo; details: 480 h, rate 250 g/ha, evaluated 20 days after spraying, read-out: LOLPE pre-emergence activity (100=total damage to plant; 0=no damage to plant)
Description: as §2, with “Pre-Emergence” for “Post-Emergence”

Setaria faberi (SETFA) [14] = assay: as above; assay type: in vivo; details: 480 h, rate 250 g/ha, evaluated 20 days after spraying, read-out: SETFA pre-emergence activity (100=total damage to plant; 0=no damage to plant)
Description: as §2, with “Pre-Emergence” for “Post-Emergence”

[15] = system: Digitaria sanguinalis (DIGSA); assay: as above; assay type: in vivo; details: 480 h, rate 250 g/ha, evaluated 20 days after spraying, read-out: DIGSA pre-emergence activity (100=total damage to plant; 0=no damage to plant)
Description: as §2, with “Pre-Emergence” for “Post-Emergence”

[16] = system: Echinochloa crus-galli (ECHCG); assay: as above; assay type: in vivo; details: 480 h, rate 250 g/ha, evaluated 20 days after spraying, read-out: ECHOG pre-emergence activity (100=total damage to plant; 0=no damage to plant)
Description: as §2, with “Pre-Emergence” for “Post-Emergence”

[17] = system: Alopecurus myosuroides (ALOMY); assay: Example B post-emergence herbicidal activity, glasshouse pot test; assay type: in vivo; details: 312 h, rate 250 g/ha, evaluated after 13 days, read-out: ALOMY post-emergence activity (100=total damage to plant; 0=no damage to plant)
In short: as §1

Avena fatua (AVEFA) [18] = assay: as above; assay type: in vivo; details: 312 h, rate 250 g/ha, evaluated after 13 days, read-out: AVEFA post-emergence activity (100=total damage to plant; 0=no damage to plant)
In short: as §1

Setaria faberi (SETFA) [19] = assay: as above; assay type: in vivo; details: 312 h, rate 250 g/ha, evaluated after 13 days, read-out: SETFA post-emergence activity (100=total damage to plant; 0=no damage to plant)
In short: as §1

[20] = system: Echinochloa crus-galli (ECHCG); assay: as above; assay type: in vivo; details: 312 h, rate 250 g/ha, evaluated after 13 days, read-out: ECHCG post-emergence activity (100=total damage to plant; 0=no damage to plant)
In short: as §1

SMILES: CCOC(=O)OC1=C(c2cc(-c3ccc(Cl)cc3)c(C)cc2C)C(=O)NC12CCN(OC)CC2 [Compound P53]
- pest or weed control at 250 g/ha [1]: 0%
- pest or weed control at 250 g/ha (Avena fatua (AVEFA) [2]): 0%
- pest or weed control at 250 g/ha (Setaria faberi (SETFA) [3]): 80%
- pest or weed control at 250 g/ha [4]: 0%
- pest or weed control at 125 g/ha [5]: 20%
- pest or weed control at 125 g/ha (Avena fatua (AVEFA) [6]): 0%
- pest or weed control at 125 g/ha (Lolium perenne (LOLPE) [7]): 0%
- pest or weed control at 125 g/ha (Setaria faberi (SETFA) [8]): 50%
- pest or weed control at 125 g/ha [9]: 60%
- pest or weed control at 125 g/ha [10]: 60%
- pest or weed control at 250 g/ha [11]: 0%
- pest or weed control at 250 g/ha (Avena fatua (AVEFA) [12]): 30%
- pest or weed control at 250 g/ha (Lolium perenne (LOLPE) [13]): 20%
- pest or weed control at 250 g/ha (Setaria faberi (SETFA) [14]): 40%
- pest or weed control at 250 g/ha [15]: 60%
- pest or weed control at 250 g/ha [16]: 50%
- melting point: 211 to 213 °C
- pest or weed control at 250 g/ha [17]: 70%
- pest or weed control at 250 g/ha (Avena fatua (AVEFA) [18]): 30%
- pest or weed control at 250 g/ha (Setaria faberi (SETFA) [19]): 90%
- pest or weed control at 250 g/ha [20]: 90%
